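1) Cells in 96-well plates. 2) Compound, 48 h, 5 concentrations. 3) Linear interpolation between surrounding doses. 4) Unreached endpoint = highest concentration. GI50 = concentration required for 50% inhibition of growth. TGI denotes the concentration required for complete inhibition of growth.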
Legend:
Test in all cases: growth of human tumour cells (NCI), 48 h
NCI-H522 lung = test system: NCI-H522 lung
MOLT-4 leukemia = test system: MOLT-4 leukemia
SF-295 CNS = test system: SF-295 CNS
COLO 205 colon = test system: COLO 205 colon
UACC-62 melanoma = test system: UACC-62 melanoma
EKVX NSCLC = test system: EKVX NSCLC
SN12C renal = test system: SN12C renal
M14 melanoma = test system: M14 melanoma
CCRF-CEM leukemia = test system: CCRF-CEM leukemia
U251 CNS = test system: U251 CNS

| SMILES | TGI (NCI-H522 lung) [µM] | TGI (MOLT-4 leukemia) [µM] | TGI (SF-295 CNS) [µM] | TGI (COLO 205 colon) [µM] | TGI (UACC-62 melanoma) [µM] | TGI (EKVX NSCLC) [µM] | TGI (SN12C renal) [µM] | TGI (M14 melanoma) [µM] | TGI (CCRF-CEM leukemia) [µM] | TGI (U251 CNS) [µM] | GI50 (NCI-H522 lung) [µM] | GI50 (MOLT-4 leukemia) [µM] | GI50 (SF-295 CNS) [µM] | GI50 (COLO 205 colon) [µM] | GI50 (UACC-62 melanoma) [µM] | GI50 (EKVX NSCLC) [µM] | GI50 (SN12C renal) [µM] | GI50 (M14 melanoma) [µM] | GI50 (CCRF-CEM leukemia) [µM] | GI50 (U251 CNS) [µM] |
| --- | --- | --- | --- | --- | --- | --- | --- | --- | --- | --- | --- | --- | --- | --- | --- | --- | --- | --- | --- | --- |
| CN(C)Cc1cc(C(C)(C)C)cc(CN(C)C)c1O | > 100 | > 100 | > 100 | > 100 | > 100 | > 100 | > 100 | > 100 | > 100 | > 100 | – | – | – | – | – | – | – | – | – | – |
| Cc1nc(-n2nc(-c3ccccc3)cc2-c2ccccc2)sc1C(=O)CC(=O)C(=O)Nc1ccc(O)cc1 | > 100 | > 100 | > 100 | > 100 | > 100 | > 100 | > 100 | > 100 | > 100 | > 100 | – | – | – | – | – | – | – | – | – | – |
| Cc1ccc(C)c(NC(=O)C(=O)Nn2c(=S)[nH]c3ccccc3c2=O)c1 | > 100 | > 100 | > 100 | > 100 | > 100 | > 100 | > 100 | > 100 | > 100 | > 100 | – | – | – | – | – | – | – | – | – | – |
| NC(=O)c1nc(-c2ccc(Cl)c(Cl)c2)nc2ccccc12 | > 100 | > 100 | > 100 | > 100 | > 100 | > 100 | > 100 | > 100 | > 100 | > 100 | – | – | – | – | – | – | – | – | – | – |
| CCOC(=O)CC(C)C1(C=O)CCCCC1=O (stereo not given) | > 100 | > 100 | > 100 | > 100 | > 100 | > 100 | > 100 | > 100 | > 100 | > 100 | – | – | – | – | – | – | – | – | – | – |
| O=S(=O)(Nc1ccc(Cl)c(Cl)c1)c1ccc(-c2cnc(C3CC3)o2)cc1 | 15.1 | > 63.6 | 11.4 | 3.36 | 14.5 | 30.4 | 17.3 | 13.1 | > 77.5 | 16.3 | 0.329 | 0.659 | 0.337 | 0.501 | 0.433 | 1.15 | 0.761 | 0.418 | 0.439 | 0.607 |
| O=C1/C(=C/c2ccc(O)cc2)Oc2ccccc21 | 62 | > 100 | > 100 | > 100 | > 100 | > 100 | > 100 | > 100 | > 100 | > 100 | – | – | – | – | – | – | – | – | – | – |
| CCCCOP1(=O)CC(C)=C(Cl)C(C)(OC)C1 (stereo not given) | > 100 | > 100 | > 100 | > 100 | > 100 | > 100 | > 100 | > 100 | 98.7 | > 100 | – | – | – | – | – | – | – | – | – | – |
| COc1ccc(C2C3=C(COC3=O)N(CCO)c3cc4c(cc32)CCC4)cc1 (stereo not given) | 3.73 | > 50 | 6.7 | > 50 | > 50 | > 50 | > 50 | 21.1 | > 50 | > 50 | 0.808 | 2.2 | 1.49 | 6.2 | 2.65 | 13.5 | 19 | 2.32 | 3.98 | 3.16 |
| CC1/C(=N/O)CC(c2ccccc2)N(N=O)C1c1ccccc1 (stereo not given) | > 100 | > 100 | > 100 | > 100 | > 100 | > 100 | > 100 | > 100 | > 100 | > 100 | – | – | – | – | – | – | – | – | – | – |
